Experimental data taken from patent US7863449B2, “Modulators of muscarinic receptors” (Vertex Pharmaceuticals Incorporated, priority 2004, dated 2011).
Structures can show the parent of a compound that is named as a salt.

What was measured:
M1 muscarinic receptor = biological target: T1, M1 muscarinic receptor (Homo sapiens, UniProt P11229); test: Functional mobilization of intracellular calcium (FLIPR), M1-CHO cells; format: cell-based; conditions: for Emax: 100% efficacy is the maximum response obtained using Carbachol as a control; for M1 Activity: M1-CHO cells, FLIPR calcium mobilization
T1 construct: expressed in transfected cells; host or cells: CHO (M1-CHO)
T1 sequence (P11229 1-460): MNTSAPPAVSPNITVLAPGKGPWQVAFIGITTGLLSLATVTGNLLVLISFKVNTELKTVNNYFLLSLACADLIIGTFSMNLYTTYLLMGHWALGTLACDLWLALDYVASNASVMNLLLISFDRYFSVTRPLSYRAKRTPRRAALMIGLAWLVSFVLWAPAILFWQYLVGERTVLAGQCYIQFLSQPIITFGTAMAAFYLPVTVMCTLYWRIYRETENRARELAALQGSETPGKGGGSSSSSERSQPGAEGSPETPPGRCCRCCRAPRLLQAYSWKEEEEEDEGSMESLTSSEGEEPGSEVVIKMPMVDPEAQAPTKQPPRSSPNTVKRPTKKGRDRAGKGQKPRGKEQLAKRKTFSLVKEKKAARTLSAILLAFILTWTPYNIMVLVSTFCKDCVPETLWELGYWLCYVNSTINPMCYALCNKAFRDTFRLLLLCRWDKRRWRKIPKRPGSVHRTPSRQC
Outline: (§1)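 Calcium flux recorded 60 s (ex 488, em 540 nm) in dye-loaded M1- or M4-CHO cells in pH 7.4 buffer with 1 mM probenecid. Inhibition measured against carbachol EC80 after 15 min compound pre-incubation or co-addition; agonism measured by compound addition alone. Final DMSO 0.5%.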

M4 muscarinic receptor = biological target: T2, M4 muscarinic receptor (Homo sapiens, UniProt P08173); test: Functional mobilization of intracellular calcium (FLIPR), M4-CHO cells; format: cell-based; conditions: for Emax: 100% efficacy is the maximum response obtained using Carbachol as a control; for M4 Activity: M4-CHO cells, FLIPR calcium mobilization
T2 construct: expressed in transfected cells; host or cells: CHO (M4-CHO)
T2 sequence (P08173 1-479): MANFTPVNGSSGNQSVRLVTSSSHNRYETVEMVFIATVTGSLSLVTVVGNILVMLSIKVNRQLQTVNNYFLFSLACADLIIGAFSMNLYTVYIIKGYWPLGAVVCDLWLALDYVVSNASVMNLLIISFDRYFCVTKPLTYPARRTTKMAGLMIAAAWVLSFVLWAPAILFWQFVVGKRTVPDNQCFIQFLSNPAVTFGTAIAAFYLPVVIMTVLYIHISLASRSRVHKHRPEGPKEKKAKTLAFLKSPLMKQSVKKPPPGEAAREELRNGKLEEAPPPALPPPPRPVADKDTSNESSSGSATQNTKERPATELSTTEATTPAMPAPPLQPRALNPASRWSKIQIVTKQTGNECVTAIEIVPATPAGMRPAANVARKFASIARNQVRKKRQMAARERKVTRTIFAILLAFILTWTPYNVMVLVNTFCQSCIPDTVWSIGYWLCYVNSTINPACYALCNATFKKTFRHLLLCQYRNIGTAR
Outline: as §1

Row | Structure (SMILES) | Emax (M1 muscarinic receptor) [%] | M1 Activity (M1 muscarinic receptor) | Emax (M4 muscarinic receptor) [%] | M4 Activity (M4 muscarinic receptor)
1 | CCOC(=O)N1CCC(N2CCC3(CC2)CN(C(=O)Nc2c(C)noc2C)Cc2ccccc23)CC1 [compound 84] | 25 to 100 | +++ (activity was measured to be less than 1.0 μM) | < 25 | +++ (activity was measured to be less than 1.0 μM)
2 | CCOC(=O)N1CCC(N2CCC3(CC2)CN(CC2CCCCC2)Cc2ccccc23)CC1 [compound 87] | 25 to 100 | ++ (activity was measured to be from 1.0 μM to 5.0 μM) | < 25 | ++ (activity was measured to be from 1.0 μM to 5.0 μM)
3 | CC(=O)N1Cc2ccccc2C2(CCN(C3CCN(C(=O)OC(C)C)CC3)CC2)C1 [compound 88] | 25 to 100 | +++ (activity was measured to be less than 1.0 μM) | 25 to 100 | +++ (activity was measured to be less than 1.0 μM)
4 | COCCN1CCC2(CC1)CN(C(C)=O)Cc1ccccc12 [compound 89] | < 25 | + (activity was measured to be greater than 5.0 μM) | < 25 | + (activity was measured to be greater than 5.0 μM)
5 | COCCOC(=O)N1C2CCC1CC(N1CCC3(CC1)CN(C(C)=O)Cc1ccccc13)C2 (stereo not shown) [compound 90] | 25 to 100 | +++ (activity was measured to be less than 1.0 μM) | 25 to 100 | +++ (activity was measured to be less than 1.0 μM)
6 | CCNC(=O)N1Cc2ccccc2C2(CCN(CC3CCN(C(=O)OCC)CC3)CC2)C1 [compound 91] | 25 to 100 | +++ (activity was measured to be less than 1.0 μM) | 25 to 100 | +++ (activity was measured to be less than 1.0 μM)
7 | CCOC(=O)N1C2CCC1CC(N1CCC3(CC1)CN(C(=O)c1cnn(-c4ccccc4)c1C(F)(F)F)Cc1ccccc13)C2 (stereo not shown) [compound 92] | 25 to 100 | ++ (activity was measured to be from 1.0 μM to 5.0 μM) | 25 to 100 | ++ (activity was measured to be from 1.0 μM to 5.0 μM)
8 | CC(=O)N1Cc2ccccc2C2(CCN(C3CCC4(CC3)OCCO4)CC2)C1 [compound 93] | 25 to 100 | + (activity was measured to be greater than 5.0 μM) | < 25 | + (activity was measured to be greater than 5.0 μM)
9 | CC(=O)N1Cc2ccccc2C2(CCN(CC3CC4CCC3CC4)CC2)C1 (stereo not shown) [compound 94] | 25 to 100 | ++ (activity was measured to be from 1.0 μM to 5.0 μM) | 25 to 100 | +++ (activity was measured to be less than 1.0 μM)
10 | O=C(OC1CCC1)N1Cc2ccccc2C2(CCN(C3CC4CCC(C3)N4C(=O)O[C@H]3CCOC3)CC2)C1 (stereo partly shown) [compound 95] | 25 to 100 | +++ (activity was measured to be less than 1.0 μM) | 25 to 100 | +++ (activity was measured to be less than 1.0 μM)
11 | COCCOC(=O)N1Cc2ccccc2C2(CCN(C3CC4CCC(C3)N4C(=O)OCCOC)CC2)C1 (stereo not shown) [compound 96] | 25 to 100 | +++ (activity was measured to be less than 1.0 μM) | 25 to 100 | +++ (activity was measured to be less than 1.0 μM)
12 | CC(=O)N1Cc2ccccc2C2(CCN(Cc3nccs3)CC2)C1 [compound 98] | < 25 | + (activity was measured to be greater than 5.0 μM) | < 25 | + (activity was measured to be greater than 5.0 μM)
13 | CCCOC(=O)N1Cc2ccccc2C2(CCN(C3CC4CCC(C3)N4C(=O)OCC)CC2)C1 (stereo not shown) [compound 99] | 25 to 100 | +++ (activity was measured to be less than 1.0 μM) | 25 to 100 | +++ (activity was measured to be less than 1.0 μM)
14 | CCCOc1ccc(CN2CCC3(CC2)CN(C(C)=O)Cc2ccccc23)cc1 [compound 100] | < 25 | + (activity was measured to be greater than 5.0 μM) | < 25 | + (activity was measured to be greater than 5.0 μM)
15 | CC(=O)N1Cc2ccccc2C2(CCN(Cc3cc(C)c(C)o3)CC2)C1 [compound 101] | < 25 | + (activity was measured to be greater than 5.0 μM) | < 25 | + (activity was measured to be greater than 5.0 μM)
16 | O=C(C1CC1)N1Cc2ccccc2C2(CCN(C3CC4CCC(C3)N4C(=O)OC3CCC3)CC2)C1 (stereo not shown) [compound 102] | 25 to 100 | +++ (activity was measured to be less than 1.0 μM) | 25 to 100 | +++ (activity was measured to be less than 1.0 μM)
17 | CCOC(=O)N1CCC(C)(CN2CCC3(CC2)CN(C(C)=O)Cc2ccccc23)CC1 [compound 103, ethyl 4-((2-acetyl-2,3-dihydro-1H-spiro[isoquinoline-4,4′-piperidine]-1′-yl)methyl)-4-methylpiperidine-1-carboxylate hydrochloride] | 25 to 100 | +++ (activity was measured to be less than 1.0 μM) | 25 to 100 | +++ (activity was measured to be less than 1.0 μM)
18 | CCOC(=O)N1CCC(N2CCC3(CC2)CN(C(=O)NC(C)C)Cc2ccccc23)CC1 [compound 104] | 25 to 100 | +++ (activity was measured to be less than 1.0 μM) | 25 to 100 | +++ (activity was measured to be less than 1.0 μM)
19 | COC(=O)c1cccc(CN2CCC3(CC2)CN(C(C)=O)Cc2ccccc23)c1 [compound 105] | < 25 | + (activity was measured to be greater than 5.0 μM) | < 25 | + (activity was measured to be greater than 5.0 μM)
20 | CCCCNC(=O)N1Cc2ccccc2C2(CCN(C3CCN(C(=O)OCC)CC3)CC2)C1 [compound 106] | 25 to 100 | +++ (activity was measured to be less than 1.0 μM) | 25 to 100 | +++ (activity was measured to be less than 1.0 μM)
21 | COc1ccc(CN2CCC3(CC2)CN(C(C)=O)Cc2ccccc23)cc1F [compound 107] | < 25 | + (activity was measured to be greater than 5.0 μM) | < 25 | + (activity was measured to be greater than 5.0 μM)
22 | CCOC(=O)N1CCC(N2CCC3(CC2)CN(C(=O)N2CCCC2)Cc2ccccc23)CC1 [compound 110] | 25 to 100 | +++ (activity was measured to be less than 1.0 μM) | 25 to 100 | +++ (activity was measured to be less than 1.0 μM)
23 | CCOC(=O)N1C2CCC(N3CCC4(CC3)CN(C(=O)OC3CCC3)Cc3ccccc34)CC1CC2 (stereo not shown) [compound 112] | 25 to 100 | +++ (activity was measured to be less than 1.0 μM) | 25 to 100 | +++ (activity was measured to be less than 1.0 μM)
24 | CC(=O)N1Cc2ccccc2C2(CCN(Cc3ccc(F)cc3)CC2)C1 [compound 115] | < 25 | + (activity was measured to be greater than 5.0 μM) | < 25 | + (activity was measured to be greater than 5.0 μM)
25 | CC(=O)N1Cc2ccccc2C2(CCN(Cc3ccc4c(c3)CCO4)CC2)C1 [compound 116] | < 25 | + (activity was measured to be greater than 5.0 μM) | < 25 | + (activity was measured to be greater than 5.0 μM)
26 | COC(=O)c1ccccc1CN1CCC2(CC1)CN(C(C)=O)Cc1ccccc12 [compound 118] | < 25 | + (activity was measured to be greater than 5.0 μM) | < 25 | + (activity was measured to be greater than 5.0 μM)
27 | CCCS(=O)(=O)N1Cc2ccccc2C2(CCN(C3CC4CCC(C3)N4C(=O)OC3CCC3)CC2)C1 (stereo not shown) [compound 119] | 25 to 100 | +++ (activity was measured to be less than 1.0 μM) | 25 to 100 | +++ (activity was measured to be less than 1.0 μM)
28 | CCOC(=O)N1CCC(N2CCC3(CC2)CN(C(=O)OCC)Cc2ccccc23)CC1 [compound 120] | 25 to 100 | +++ (activity was measured to be less than 1.0 μM) | 25 to 100 | +++ (activity was measured to be less than 1.0 μM)
